# According to US20210108198A1, “APPLICATION OF COMPOUND OR TRADITIONAL CHINESE MEDICINE EXTRACT IN PREPARATION OF NUCLEIC ACID DELIVERY AGENT AND RELATED PRODUCTS THEREOF” (INSTITUTE OF BASIC MEDICAL SCIENCES CHINESE ACADEMY OF …, priority 2017, published 2021):
# Entries after “also recorded” stand apart in the source; their conditions may differ.
# How the values were obtained:
# MRC-5 cell = experiment: RT-qPCR detection of nucleic acid delivered by lipid into MRC-5 cells; assay type: cell-based; conditions: RNA 100 nM
# Experimental: 3.1 NCI-N87 cell (gastric cancer cell), MRC-5 cell (lung fibroblast), A549 cell (lung cancer cell) were cultured to logarithmic growth phase, and then plated to a six-well plate at cell density of 1×10^6/2 mL medium/well; MRC-5 cell was cultured in Eagle's MEM medium (MEM, Gibco); A549 cell was cultured in Ham's F-12 medium (HyClone); NCI-N87 cell was cultured in RPMI-1640 medium (HyClone); followed by incubation overnight at 37° C., and the follow-up experiments were performed after the cells were attached to the walls.
# 3.3 After co-incubation with the small RNA for 3 hours, the cells were washed 2-3 times with PBS. The cells were harvested with TRIzol lysis buffer, and the total RNA was extracted. The abundance of small RNA that entered cells was detected by RT-qPCR, and the localization of RNA was detected by fluorescence in situ hybridization; protocols of each detection method were as follows:
# 3.3.2 RT-qPCR Detection of Small RNA (SYBR Green Dye Method)
# The stem-loop primer used in the reverse transcription process was synthesized by Beijing Tsingke Biotechnology Co., Ltd. (U6 RT primer: […] ATG (SEQ ID NO: 21); HJT-sRNA-m7 RT stem-loop primer: […] AA (SEQ ID NO: 22)).
# Both the forward and reverse primers of the amplification reaction were designed and synthesized by Beijing Tsingke Biotechnology Co., Ltd. (U6 F Primer: […] (SEQ ID NO: 23), U6 R Primer: […] (SEQ ID NO: 24), HJT-sRNA-m7 F Primer: […] (SEQ ID NO: 25), HJT-sRNA-m7 R Primer: […] (SEQ ID NO: 26)).
# 3) The relative expression level was calculated by 2-ΔCt method.
# 3.1.3 After co-incubation with cells for 12-24 hours, the cells were washed twice with PBS. The cells were harvested with TRIzol lysis buffer (purchased from Sigma-Aldrich), and total RNA was extracted.
# A549 cell = experiment: RT-qPCR detection of nucleic acid delivered by lipid into A549 cells; assay type: cell-based, human; conditions: RNA 100 nM; for delivery of double-stranded HJT-sRNA-m7 by single lipid (real-time PCR): 12 hours
# A549 cells [1] = experiment: Digital PCR (ddPCR) detection of the efficiency of nucleic acid delivery by lipid; assay type: cell-based, human
# Experimental: (§1) 2.2 Experimental method: the total cellular RNA was collected and extracted by TRIzol lysis buffer according to the above methods, and reverse transcribed to cDNA using High capacity cRNA Reverse Transcription Kit, and the cDNA from different groups was subject to digital PCR reaction. Refering to the QX200 Droplet Reader and QuantaSoft Software manual for the protocols, the results were analyzed using QuantaSoft software.
# as §1, with “method:” for “method: the”, “total” for “total cellular”, “method,” for “methods,”, “subjected” for “subject”, “Refer” for “Refering”, “protocols;” for “protocols,”
# (§2) 2.2 Experimental method: Total RNA was collected and extracted by TRIzol lysis buffer according to the above method, and reverse transcribed to cDNA using TaqMan™ MicroRNA Reverse Transcription KitHigh, and the cDNA from different groups was subjected to digital PCR reaction. Refer to the QX200 Droplet Reader and QuantaSoft Software manual for the protocols; the results were analyzed using QuantaSoft software.
# as §2, with “reversed” for “reverse transcribed”, “High capacity cRNA” for “TaqMan™ MicroRNA”, “Kit,” for “KitHigh,”
# A549 cells [2] = experiment: Confocal fluorescence microscopy of nucleic acid delivered by lipid in cells; assay type: cell-based, human; conditions: 4 μl lipid, boiling method; 6 hours of co-incubation
# Experimental: Experimental materials: A549 cells (purchased from the Cell Center of the Chinese Academy of Medical Sciences), PGY-sRNA-6-Cy3 (purchased from Ribobio Biotechnology Co., Ltd.), lipid No. 41, Zeiss LSM780 (purchased from Zeiss, Germany), Alexa Fluor® 488 phalloidin (purchased from Invitrogen, USA), DAPI (purchased from Invitrogen, USA), paraformaldehyde (purchased from sigma, USA).
# (§3) Experimental methods: PGY-sRNA-6-FAM was dissolved in 100 μl water, mixed with 4 μl lipid, and prepared by the boiling method. Then the mixture was dropped into A549 cells, and after 6 hours of co-incubation, the samples were washed three times with PBS, fixed with 4% paraformaldehyde, washed three times with PBS, stained with Alexa Fluor® 488 phalloidin for 30 min, washed 3 times with PBS, and stained with DAPI for 5 min, washed with PBS, and then sealed.
# as §3, with “method:” for “methods:”, “water, and” for “water,”, “by” for “by the”, “Then,” for “Then”, “PBS washed,” for “washed with PBS,”
# [3] = In vivo delivery of single-stranded sRNA by single lipid via gavage (blood, stomach, small intestine, liver); set-up: species or system C57 mice; conditions: 10 μl lipid, heating method
# Text: Tissues sampled: live/stomach/small intestine.
# [4] = boiling (heating) method, 12 hours (No. 37: 3 hours)
structure (smiles),measurement,setting,value
"CCCCCCCCCCCCCCCCCCC[C@@H](O)[C@@H](N)CO [No. 41, Sphinganine (d22:0)]",delivery of double-stranded HJT-sRNA-m7 by single lipid (real-time PCR),MRC-5 cell; boiling (heating) method,delivered HJT-sRNA-m7 double-stranded RNA into MRC-5 cells
same,delivery of single-stranded HJT-sRNA-m7 by single lipid (real-time PCR),MRC-5 cell; [4],delivered HJT-sRNA-m7 single-stranded RNA into A549 and MRC-5 cells
same,delivery of double-stranded HJT-sRNA-m7 by single lipid (real-time PCR),MRC-5 cell; reverse evaporation method,delivered HJT-sRNA-m7 double-stranded RNA into MRC-5 cells; also recorded: significantly higher than that of RNAiMAX
same,delivery of double-stranded HJT-sRNA-m7 by single lipid (real-time PCR),"A549 cell; boiling (heating) method, 2.5 μL single lipid",delivered HJT-sRNA-m7 double-stranded RNA into A549 cells; also recorded: about twice that of RNAiMAX
same,delivery of single-stranded HJT-sRNA-m7 by single lipid (real-time PCR),A549 cell; [4],delivered HJT-sRNA-m7 single-stranded RNA into A549 and MRC-5 cells
same,delivery of double-stranded HJT-sRNA-m7 by single lipid (real-time PCR),A549 cell; reverse evaporation method,delivered HJT-sRNA-m7 double-stranded RNA into A549 cells; also recorded: significantly higher than that of RNAiMAX
same,delivery of HJT-sRNA-m7 dsRNA (ddPCR),"A549 cells [1]; boiling method, 6 hours",could effectively deliver HJT-sRNA-m7 dsRNA into A549 cells; also recorded: the boiling method had better effects than reverse evaporation method
same,delivery of HJT-sRNA-m7 dsRNA (ddPCR),"A549 cells [1]; reverse evaporation method, 6 hours (No. 39: 6 hours, 12 hours)",could effectively deliver HJT-sRNA-m7 dsRNA into A549 cells
same,entry of PGY-sRNA-6-Cy3 observed under the confocal microscopy,A549 cells [2],could effectively deliver double-stranded nucleic acid into A549 cells
same,entry of single-stranded small RNA into mouse blood (RT-qPCR),"[3]; 1 nmol each sRNA (PGY-sRNA-23/-26/-32), 6 hours or 12 hours after administration","could promote the entry of small RNA into the blood, protecting it from degradation in the blood; also recorded: could effectively deliver sRNA single-stranded nucleic acid into the mouse blood via oral administration to protect sRNA from degradation; also recorded: the delivery effect was better than POPC and Lipofectamine RNAiMAX"
same,entry of single-stranded small RNA into mouse stomach (RT-qPCR),"[3]; 1 nmol each sRNA, FIG. 109","could promote the entry of small RNA into the stomach cells, protecting it from degradation in the stomach; also recorded: could effectively deliver sRNA single-stranded nucleic acid into the mouse stomach via oral administration to protect sRNA from degradation"
same,entry of single-stranded small RNA into mouse small intestine (RT-qPCR),"[3]; 1 nmol each sRNA, FIG. 110","could promote the entry of small RNA into small intestinal cells, protecting it from degradation in the small intestine; also recorded: could effectively deliver sRNA single-stranded nucleic acid into the mouse small intestine via oral administration to protect sRNA from degradation"
same,entry of single-stranded small RNA into mouse liver (RT-qPCR),"[3]; 1 nmol each sRNA, FIG. 111","could promote the entry of small RNA into the liver, protecting it from degradation in the liver; also recorded: could effectively deliver sRNA single-stranded nucleic acid into the mouse liver via oral administration to protect sRNA from degradation"
